Among the data in patent US8580762B2, “Substituted purine and 7-deazapurine compounds” (Epizyme, Inc., priority 2010, dated 2013) are IC50 values, retold here.

The structures appear in SMILES notation. Where only a bound is given, the exact number is not on record here.

One may read the IC50 as the point on the concentration scale where inhibition reaches its midpoint.

This assay deals with DOT1L(1-416) (Homo sapiens, UniProt Q8TEK3). Kind of assay: Determination of IC50: DOT1L(1-416) methyltransferase assay, 3H-SAM, oligonucleosome substrate, Flashplate. The class given is biochemical. As to conditions: class symbols; read-out: DOT1L IC50. As for the experimental part: Determination of IC50. Test compounds were serially diluted 3 fold in DMSO for 10 points and 1 μl was plated in a 384 well microtiter plate. […] 10 μl per well of substrate mix (same assay buffer with 200 nM S-[methyl-^3H]-adenosyl-L methionine, 600 nM of unlabeled […], and 20 nM oligonueleosome) was added to initiate the reaction. Reaction was incubated for 120 minutes at room temperature and quenched with 10 μl per well of 100 μM S-methyl-adenosyl-L methionine. For detection, substrate from 50 μl of reaction was immobilized on a 384 well Streptavidin coated Flashplate (Perkin Elmer) (also coated with 0.2% polyethyleneimine) and read on a Top Count scintillation counter (Perkin Elmer).
Chain of DOT1L(1-416) (Q8TEK3 1-416): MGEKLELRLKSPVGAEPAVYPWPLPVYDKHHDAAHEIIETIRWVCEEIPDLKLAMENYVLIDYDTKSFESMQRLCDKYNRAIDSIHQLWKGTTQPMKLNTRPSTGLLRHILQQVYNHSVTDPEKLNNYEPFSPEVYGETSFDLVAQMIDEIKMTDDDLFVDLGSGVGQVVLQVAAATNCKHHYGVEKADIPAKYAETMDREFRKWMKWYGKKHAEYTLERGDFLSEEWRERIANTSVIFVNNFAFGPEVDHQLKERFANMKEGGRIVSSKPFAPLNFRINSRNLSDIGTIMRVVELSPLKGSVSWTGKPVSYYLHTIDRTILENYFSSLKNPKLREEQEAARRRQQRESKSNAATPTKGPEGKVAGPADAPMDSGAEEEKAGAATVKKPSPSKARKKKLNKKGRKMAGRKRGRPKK
For the molecule `CN(C[C@H]1O[C@@H](n2cnc3c(N)ncnc32)[C@H](O)[C@@H]1O)[C@H]1C[C@H](CCc2nc3cc(C4(C#N)CC4)ccc3[nH]2)C1` [Compound 138, 1-(2-(2-((1R,3s)-3-((((2R,3S,4R,5R)-5-(6-amino-9H-purin-9-yl)-3,4-dihydroxytetrahydro-furan-2-yl)methyl)(methyl)amino)cyclobutyl)ethyl)-1H-benzo[d]imidazol-5-yl)cyclo-propanecarbonitrile], the IC50 was below 100 nM.

Consider `CN(C[C@H]1C[C@@H](n2ccc3c(N)ncnc32)[C@H](O)[C@@H]1O)[C@H]1C[C@@H](CCc2nc3cc(C(F)(F)F)c(Cl)cc3[nH]2)C1` [Compound 9, (1R,2S,3R,5R)-3-(4-amino-7H-pyrrolo[2,3-d]pyrimidin-7-yl)-5-((((1r,3S)-3-(2-(6-chloro-5-(trifluoromethyl)-1H-benzo[d]imidazol-2-yl)ethyl)cyclobutyl)(methyl)amino)methyl)cyclopentane-1,2-diol], for which the IC50 is below 100 nM. On to `CC(C)(C)c1ccc2[nH]c(CC[C@H]3C[C@H](N(C[C@H]4O[C@@H](n5ccc6c(N)ncnc65)[C@H](O)[C@@H]4O)CC(F)(F)F)C3)nc2c1` [Compound 77, (2R,3R,4S,5R)-2-(4-amino-7H-pyrrolo[2,3-d]pyrimidin-7-yl)-5-((((1s,3R)-3-(2-(5-(tert-butyl)-1H-benzo[d]imidazol-2-yl)ethyl)cyclobutyl)(2,2,2-trifluoroethyl)amino)methyl)tetrahydrofuran-3,4-diol], for which the IC50 lay within 100 to 1000 nM. The figure for `CC(C)N(C[C@H]1C[C@@H](n2ccc3c(N)ncnc32)[C@H](O)[C@@H]1O)[C@H]1C[C@@H](CCc2nc3cc(OC(F)(F)F)ccc3[nH]2)C1` [Compound 60, (1R,2S,3R,5R)-3-(4-amino-7H-pyrrolo[2,3-d]pyrimidin-7-yl)-5-((isopropyl((1r,3S)-3-(2-(5-(trifluoromethoxy)-1H-benzo[d]imidazol-2-yl)ethyl)cyclobutyl)amino)methyl)cyclopentane-1,2-diol] is below 100 nM. The figure for `CC(C)(C)c1ccc2[nH]c(CC[C@H]3C[C@@H](N(CC4CCC4)C[C@H]4C[C@@H](n5ccc6c(N)ncnc65)[C@H](O)[C@@H]4O)C3)nc2c1` [Compound 42, (1R,2S,3R,5R)-3-(4-amino-7H-pyrrolo[2,3-d]pyrimidin-7-yl)-5-((((1r,3S)-3-(2-(5-(tert-butyl)-1H-benzo[d]imidazol-2-yl)ethyl)cyclobutyl)(cyclobutylmethyl)amino)methyl)cyclopentane-1,2-diol] is below 100 nM.

As to `CN(C[C@H]1O[C@@H](n2cnc3c(N)ncnc32)[C@H](O)[C@@H]1O)[C@H]1C[C@@H](CCc2nc3cc(OC(F)(F)F)ccc3[nH]2)C1` [Compound 96, (2R,3R,4S,5R)-2-(6-amino-9H-purin-9-yl)-5-((methyl((1r,3S)-3-(2-(5-(trifluoromethoxy)-1H-benzo[d]imidazol-2-yl)ethyl)cyclobutyl)amino)methyl)tetrahydrofuran-3,4-diol], the IC50 was below 100 nM. Next, `CC(C)(C)c1ccc2[nH]c(CC[C@H]3C[C@H](N(CC4CC4)C[C@H]4C[C@@H](n5ccc6c(N)ncnc65)[C@H](O)[C@@H]4O)C3)nc2c1` [Compound 54, (1R,2S,3R,5R)-3-(4-amino-7H-pyrrolo[2,3-d]pyrimidin-7-yl)-5-((((1s,3R)-3-(2-(5-(tert-butyl)-1H-benzo[d]imidazol-2-yl)ethyl)cyclobutyl)(cyclopropylmethyl)amino)methyl)cyclopentane-1,2-diol]: below 100 nM. For the molecule `CC(C)N(C[C@H]1O[C@@H](n2cnc3c(N)ncnc32)[C@H](O)[C@@H]1O)C1CC(CCc2nc3cc(C4(C)CCC4)ccc3[nH]2)C1` (stereo partly drawn) [Compound 27, (2R,3R,4S,5R)-2-(6-amino-9H-purin-9-yl)-5-((isopropyl(3-(2-(5-(1-methylcyclobutyl)-1H-benzo[d]imidazol-2-yl)ethyl)cyclobutyl)amino)methyl)tetrahydrofuran-3,4-diol], the IC50 is below 100 nM. The figure for `CC(C)N(C[C@@H]1C[C@@H](O)[C@H](n2ccc3c(N)ncnc32)C1)[C@H]1C[C@H](CCc2nc3cc(C(C)(C)C)ccc3[nH]2)C1` [Compound 104, (1R,2R,4S)-2-(4-amino-7H-pyrrolo[2,3-d]pyrimidin-7-yl)-4-((((1s,3S)-3-(2-(5-(tert-butyl)-1H-benzo[d]imidazol-2-yl)ethyl)cyclobutyl) (isopropyl)amino)methyl)cyclopentanol] is 1000 to 10000 nM; for `CC(C)(C)c1ccc2[nH]c(CC[C@H]3C[C@H](N(C[C@H]4C[C@@H](n5ccc6c(N)ncnc65)[C@H](O)[C@@H]4O)C4CCC4)C3)nc2c1` [Compound 51, (1R,2S,3R,5R)-3-(4-amino-7H-pyrrolo[2,3-d]pyrimidin-7-yl)-5-((((1s,3R)-3-(2-(5-(tert-butyl)-1H-benzo[d]imidazol-2-yl)ethyl)cyclobutyl)(cyclobutyl)amino)methyl)cyclopentane-1,2-diol] it is below 100 nM; for `CN(C[C@H]1C[C@@H](n2ccc3c(N)ncnc32)[C@H](O)[C@@H]1O)[C@H]1C[C@@H](CCc2nc3cc(C4(C)CCC4)ccc3[nH]2)C1` [Compound 36, (1R,2S,3R,5R)-3-(4-amino-7H-pyrrolo[2,3-d]pyrimidin-7-yl)-5-((methyl((1r,3S)-3-(2-(5-(1-methylcyclobutyl)-1H-benzo[d]imidazol-2-yl)ethyl)cyclobutyl)amino)methyl)cyclopentane-1,2-diol] it is below 100 nM. Next, `CN(C[C@H]1C[C@@H](n2ccc3c(N)ncnc32)[C@H](O)[C@@H]1O)C1CC(CCc2nc3cc(OC(F)(F)F)ccc3[nH]2)C1` (stereo partly drawn) [Compound 24, (1R,2S,3R,5R)-3-(4-amino-7H-pyrrolo[2,3-d]pyrimidin-7-yl)-5-((methyl(3-(2-(5-(trifluoromethoxy)-1H-benzo[d]imidazol-2-yl)ethyl)cyclobutyl)amino)methyl)cyclopentane-1,2-diol]: below 100 nM. The figure for `CN(C[C@H]1C[C@@H](n2ccc3c(N)ncnc32)[C@H](O)[C@@H]1O)[C@H]1C[C@@H](CCc2nc3cc(Cl)c(Cl)cc3[nH]2)C1` [Compound 52, (1R,2S,3R,5R)-3-(4-amino-7H-pyrrolo[2,3-d]pyrimidin-7-yl)-5-((((1r,3S)-3-(2-(5,6-dichloro-1H-benzo[d]imidazol-2-yl)ethyl)cyclobutyl)(methyl)amino)methyl)cyclopentane-1,2-diol] is below 100 nM; for `CC(C)(C)c1ccc2[nH]c(CC[C@H]3C[C@@H](N(CC4CC4)C[C@H]4C[C@@H](n5ccc6c(N)ncnc65)[C@H](O)[C@@H]4O)C3)nc2c1` [Compound 40, (1R,2S,3R,5R)-3-(4-amino-7H-pyrrolo[2,3-d]pyrimidin-7-yl)-5-((((1r,3S)-3-(2-(5-(tert-butyl)-1H-benzo[d]imidazol-2-yl)ethyl)cyclobutyl)(cyclopropylmethyl)amino)methyl)cyclopentane-1,2-diol] it is below 100 nM; for `CC(C)N(CC1CC(Cc2nc3cc(C(F)(F)F)c(Cl)cc3[nH]2)C1)C[C@H]1C[C@@H](n2ccc3c(N)ncnc32)[C@H](O)[C@@H]1O` (stereo partly drawn) [Compound 21, (1R,2S,3R,5R)-3-{4-amino-7H-pyrrolo[2,3-d]pyrimidin-7-yl}-5-({[(3-{[6-chloro-5-(trifluoromethyl)-1H-1,3-benzodiazol-2-yl]methyl}cyclobutyl)methyl](propan-2-yl)amino}methyl)cyclopentane-1,2-diol] it is 1000 to 10000 nM.
